Values belong to the compound of their own block, whether it stands above or below them.
Tests used:
[1] = biological target: human catalytic domain HDAC4 protein (amino acids 648-1032) (Homo sapiens (Human), UniProt P56524); assay: Inhibition of HDAC4 catalytic domain enzymatic activity, fluorogenic substrate Boc-Lys(Tfa)-AMC; conditions: HDAC4 catalytic domain enzyme, read-out: Biochemical HDAC4 IC50
Description: Analysis of Inhibition of HDAC4 with Class IIa Histone Deacetylase (HDAC) Inhibitors
The potency of Class IIa Histone Deacetylase (HDAC) inhibitors is quantified by measuring the Histone Deacetylase 4 (HDAC4) catalytic domain enzymatic activity using the fluorogenic substrate, Boc-Lys(Tfa)-AMC. The substrate is deacetylated to Boc-Lys-AMC by HDAC4. Cleavage by trypsin results in the release of the fluorophore AMC from the deacetylated substrate. The fluorescence of the sample is directly related to the histone deacetylase activity in the sample.
Serially dilute HDAC inhibitor compounds. […] Stocks of 6 μl aliquots of the 10 mM compound in DMSO are prepared and stored at […]. From one stock aliquot of each compound to be tested and the reference compound, a 16-point serial dilution is prepared according to Table 1 using a 125 μl 16-channel Matrix multi-channel pipette (Matrix Technologies Ltd).
2 μl (200×) of each diluted solution and each control (full activity: 100% DMSO alone or full inhibition 1 mM) is stamped into V-bottomed polypropylene 384-well compound plates using either the Bravo (384-well head from Agilent) or 12.5 μl 16-channel Matrix multi-channel pipette (Matrix Technologies Ltd).
Prepare HDAC4 catalytic domain enzyme (0.2 μg/mL).
Prepare 5× ([…]) Boc-Lys(Tfa)-AMC Substrate. 5× (50 μM) substrate is prepared just prior to the addition to the assay. A 1 mM substrate stock is made by diluting a 100 mM Boc-Lys(Tfa)-AMC in DMSO solution 1:100 by adding it drop-wise to assay buffer (equilibrated to r.t.) while vortexing at slow speed to prevent precipitation. The 5× substrate is prepared by diluting the 1 mM substrate solution 1:20 by adding it drop-wise to assay buffer (equilibrated to r.t.) while vortexing at slow speed to prevent precipitation.
Prepare 3× (30 μM) Developer/Stop Solution.
Assay. 5 μl of each solution of 1:20 diluted compound from above is transferred to a clear bottomed, black, 384-well assay plate using the Bravo or the Janus (384-well MDT head from Perkin Elmer). Using a 16-channel Matrix multi-channel pipette, 35 μl of the working solution of HDAC4 catalytic domain enzyme (0.2 μg/mL in assay buffer) is transferred to the assay plate. […] The assay plate is then shaken for two minutes on an orbital shaker at 900 rpm (rotations per minute). Next the plate is incubated for 15 minutes at 37° C. The reaction is stopped by adding 25 μl of 3× (3 μM) developer/stop solution to the assay plates using either the Bravo, Janus or a 16-channel Matrix multi-channel pipette. Assay plates are then shaken for 5 minutes on an orbital shaker at 1200 rpm. Next, the assay plates are incubated at 37° C. for 1 hour in a tissue culture incubator.

[2] = test system: cellular histone deacetylase enzymatic activity in Jurkat E6-1 cells; assay: Inhibition of cellular HDAC activity in Jurkat E6-1 cells, fluorogenic substrate Boc-Lys(Tfa)-AMC; type: cell-based; conditions: Homo sapiens, read-out: Cell IC50
Description: Analysis of Inhibition of Cellular HDAC Activity with Class IIa Histone Deacetylase (HDAC) Inhibitors
The potency of Class IIa Histone Deacetylase (HDAC) inhibitors is quantified by measuring the cellular histone deacetylase enzymatic activity using the fluorogenic substrate, Boc-Lys(Tfa)-AMC. After penetration in Jurkat E6-1 cells, the substrate is deacetylated to Boc-Lys-AMC. After cell lysis and cleavage by trypsin, the fluorophore AMC is released from the deacetylated substrate only. The fluorescence of the sample is directly related to the histone deacetylase activity in the sample.
Jurkat E6.1 cell culture and plating. Jurkat E6.1 cells are cultured according to standard cell culture protocols in Jurkat E6.1 Growth Media (RPMI without phenol red, 10% FBS, 1 mM HEPES, and 1 mM Sodium Pyruvate). Jurkat E6.1 cells are counted using a Coulter Counter and resuspended in Jurkat E6.1 growth media at a concentration of 75,000 cells/35 μl. 35 μl or 75,000 cells is seeded into Greiner microtitre assay plates. The plates are then incubated at 37° C. and 5% CO2 while other assay components are being prepared.
Serially dilute HDAC inhibitor compounds. Serial dilutions of the HDAC inhibitors and control reference compound (1-(5-(3-((4-(1,3,4-oxadiazol-2-yl)phenoxy)methyl)-1,2,4-oxadiazol-5-yl)thiophen-2-yl)-2,2,2-trifluoroethanone) are made by first resuspending the lyophilized compound to a final concentration of 10 mM in […]. Stocks of 70 μl aliquots of the 10 mM compound in DMSO are prepared and stored at −20° C. From one stock aliquot of each compound to be tested and the reference compound, a 16-point serial dilution is prepared according to Table 1 using a 125 μl 16-channel Matrix multi-channel pipette.
2 μl (200×) of each diluted solution and each control (full activity: 100% DMSO alone or full inhibition 1 mM) is stamped into V-bottom polypropylene 384-well compound plates using either the Bravo, Janus, or 12.5 μl 16-channel Matrix multi-channel pipette. Each well with the 200× compound solution is diluted 1:20 by the addition of 38 μl Jurkat assay buffer+DMSO (9.5% DMSO, RPMI without phenol red, 0.09% FBS, 9 mM Hepes, and 0.9 mM Sodium Pyruvate equilibrated to r.t.)
Prepare 5× (500 μM) Boc-Lys(Tfa)-AMC substrate. 5× (500 μM) substrate is prepared just prior to the addition to the assay. The 5× substrate is prepared by diluting a 100 mM Boc-Lys(Tfa)-AMC in DMSO solution 1:200 by adding it drop-wise to Jurkat assay medium (RPMI without phenol red, 0.1% FBS, 10 mM Hepes, and 1 mM Sodium Pyruvate equilibrated to 37° C.) while vortexing at slow speed to prevent precipitation.
Prepare 3× Lysis Buffer. 10 mL of 3× lysis buffer is prepared with 8.8 mL of 3× stock lysis buffer (50 mM Tris-HCl, pH 8.0, 137 mM NaCl, 2.7 mM KCl, 1 mM MgCl2, 1% Nonidet P40 Substitute equilibrated to r.t.) and 1.2 mL of 3 mg/mL Trypsin equilibrated to r.t.
Assay. 5 μl of each solution of 1:20 diluted compound from above is transferred to the Greiner microtitre assay plates with 75,000 cells/well using the Bravo. Cells are then incubated for 2 hours at 37° C. and 5% CO2. The assay is then started by adding 10 μl of 5× (500 μM) substrate to the assay plate using either the Bravo or 16-channel Matrix multi-channel pipette. The cells are then incubated for 3 hours at 37° C. and 5% CO2. Next, 25 μl of 3× lysis buffer is added to each well using either the 125 μl 16 channel pipette or the Bravo. The assay plate is then incubated overnight (15-16 hours) at 37° C. and 5% CO2. The following day, the plates are shaken on an orbital shaker for 1 minute at 900 rpm. Finally the top read fluorescence (Excitation: 355 nm, Emission: 460 nm) is measured using PerkinElmer EnVision.

human catalytic domain HDAC4 protein (amino acids 648-1032), sequence (P56524 648-1032): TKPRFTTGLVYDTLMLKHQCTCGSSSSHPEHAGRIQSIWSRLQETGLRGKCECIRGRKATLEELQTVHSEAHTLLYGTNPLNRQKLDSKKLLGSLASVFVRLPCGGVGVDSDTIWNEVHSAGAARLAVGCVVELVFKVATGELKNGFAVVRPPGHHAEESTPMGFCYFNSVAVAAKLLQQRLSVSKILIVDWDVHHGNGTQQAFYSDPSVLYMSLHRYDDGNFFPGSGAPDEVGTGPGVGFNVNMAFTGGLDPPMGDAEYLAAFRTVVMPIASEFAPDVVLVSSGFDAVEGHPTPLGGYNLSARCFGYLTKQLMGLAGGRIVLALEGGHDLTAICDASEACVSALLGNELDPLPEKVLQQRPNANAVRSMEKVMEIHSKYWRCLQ

SMILES: Cc1c(F)cccc1[C@]1(C(=O)NO)CC[C@@H](c2cc3c(cnn3C)cc2F)C1 [Example 81, (1S,3R)-3-(5-Fluoro-1-methyl-1H-indazol-6-yl)-1-(3-fluoro-2-methylphenyl)-N-hydroxycyclopentanecarboxamide]
IC50 [1]: 150 nM
IC50 [2]: 580 nM

SMILES: Cc1c(F)cccc1[C@]1(C(=O)NO)CC[C@H](c2ccc3c(c2)NCC(C)(C)O3)C1 (relative stereo) [Example 73]
IC50 [1]: 270 nM
IC50 [2]: 410 nM

SMILES: Cc1c(F)cccc1[C@]1(C(=O)NO)CC[C@@H](c2ccc3ncn(C)c3c2)C1 (relative stereo) [Example 70, (1S,3R*)-1-(3-Fluoro-2-methylphenyl)-N-hydroxy-3-(1-methyl-1H-benzo[d]imidazol-6-yl)cyclopentanecarboxamide]
IC50 [1]: 110 nM
IC50 [2]: 130 nM

SMILES: Cc1c(F)cccc1[C@]1(C(=O)NO)CC[C@@H](c2cc(F)cnc2C2CC2)C1 [Example 43, (1S,3R)-3-(2-cyclopropyl-5-fluoropyridin-3-yl)-1-(3-fluoro-2-methylphenyl)-N-hydroxycyclopentanecarboxamide]
IC50 [1]: 240 nM
IC50 [2]: 610 nM

SMILES: Cc1cccc(C2(C(=O)NO)CCCC2)c1 [Example 25, N-Hydroxy-1-m-tolylcyclopentanecarboxamide]
IC50 [1]: 8200 nM
IC50 [2]: 43700 nM

SMILES: Cc1c(F)cccc1[C@]1(C(=O)NO)CC[C@@H](c2ccc3c(c2)NCC(C)(C)O3)C1 (relative stereo) [Example 72]
IC50 [1]: 300 nM
IC50 [2]: 470 nM

SMILES: Cc1c(F)cccc1[C@]1(C(=O)NO)CC[C@H](c2ccc3cnn(C(F)F)c3c2)C1 (relative stereo) [Example 55, (1S,3S*)-3-(1-(difluoromethyl)-1H-indazol-6-yl)-1-(3-fluoro-2-methylphenyl)-N-hydroxycyclopentanecarboxamide]
IC50 [1]: 46 nM
IC50 [2]: 160 nM

SMILES: Cc1c(F)cccc1[C@]1(C(=O)NO)CC[C@H](c2ccc3cnn(C)c3c2)CC1 [Example 104, (1r,4r)-1-(3-fluoro-2-methylphenyl)-N-hydroxy-4-(1-methyl-1H-indazol-6-yl)cyclohexanecarboxamide]
IC50 [1]: 950 nM
IC50 [2]: 650 nM

SMILES: Cc1c(F)cccc1C1(C(=O)NO)CCC2(CCOCC2)C1 (racemic) [Example 105, (±)-2-(3-fluoro-2-methylphenyl)-N-hydroxy-8-oxaspiro[4.5]decane-2-carboxamide]
IC50 [1]: 1400 nM
IC50 [2]: 12000 nM

SMILES: Cc1c(F)cccc1[C@]1(C(=O)NO)CC[C@@H](c2ccc3cn(C(F)F)nc3c2)C1 (relative stereo) [Example 65, (1S,3R*)-3-(2-(difluoromethyl)-2H-indazol-6-yl)-1-(3-fluoro-2-methylphenyl)-N-hydroxycyclopentanecarboxamide]
IC50 [1]: 110 nM
IC50 [2]: 99 nM

SMILES: Cc1c(F)cccc1[C@]1(C(=O)NO)CC[C@H](c2ccc3c(cnn3C)c2)C1 (relative stereo) [Example 64, (1S,3S*)-1-(3-fluoro-2-methylphenyl)-N-hydroxy-3-(1-methyl-1H-indazol-5-yl)cyclopentanecarboxamide]
IC50 [1]: 100 nM
IC50 [2]: 220 nM

SMILES: O=C(NO)C1(c2ccccc2)CCCCCC1 [Example 106, N-hydroxy-1-phenylcycloheptanecarboxamide]
IC50 [1]: 6900 nM
IC50 [2]: 41100 nM

SMILES: Cc1c(F)cccc1[C@]1(C(=O)NO)CC[C@@H](c2ccc(F)cn2)C1 (relative stereo) [Example 12, (1S,3R*)-1-(3-fluoro-2-methylphenyl)-3-(5-fluoropyridin-2-yl)-N-hydroxycyclopentane carboxamide]
IC50 [1]: 240 nM
IC50 [2]: 2370 nM

SMILES: Cc1c(F)cccc1C1(C(=O)NO)CCC(c2cccnc2)C1 (stereo not drawn) [Example 1, 1-(3-fluoro-2-methylphenyl)-N-hydroxy-3-(pyridin-3-yl)cyclopentanecarboxamide]
IC50 [1]: 190 nM
IC50 [2]: 1230 nM

SMILES: Cc1c(F)cccc1[C@]1(C(=O)NO)CC[C@H](c2ccc3ncn(C)c3c2)C1 (relative stereo) [Example 71, (1S,3S*)-1-(3-Fluoro-2-methylphenyl)-N-hydroxy-3-(1-methyl-1H-benzo[d]imidazol-6-yl)cyclopentanecarboxamide]
IC50 [1]: 59 nM
IC50 [2]: 110 nM

The remaining lines, values ahead:

IC50 [1]: 1100 nM
IC50 [2]: 6500 nM
SMILES: CCc1ccccc1C1(C(=O)NO)CCCC1 [Example 32, 1-(2-Ethylphenyl)-N-hydroxycyclopentanecarboxamide]

IC50 [1]: 4600 nM
IC50 [2]: 44700 nM
SMILES: O=C(NO)C1(c2ccccc2F)CCCC1 [Example 19, 1-(2-fluorophenyl)-N-hydroxycyclopentanecarboxamide]

IC50 [1]: 730 nM
IC50 [2]: 8120 nM
SMILES: Cc1ccccc1C1(C(=O)NO)CCCC1 [Example 24, N-Hydroxy-1-o-tolylcyclopentanecarboxamide]

IC50 [1]: 2500 nM
IC50 [2]: 18500 nM
SMILES: O=C(NO)C1(c2cccc(F)c2F)CCCC1 [Example 15, 1-(2,3-difluorophenyl)-N-hydroxycyclopentanecarboxamide]

IC50 [1]: > 50000 nM
IC50 [2]: > 50000 nM
SMILES: O=C(NO)C1(c2cccc3c2OCC3)CCCC1 [Example 16, 1-(2,3-dihydrobenzofuran-7-yl)-N-hydroxycyclopentanecarboxamide]

IC50 [1]: 570 nM
IC50 [2]: 5600 nM
SMILES: Cc1cc(F)ccc1C1(C(=O)NO)CCCC1 [Example 35, 1-(4-Fluoro-2-methylphenyl)-N-hydroxycyclopentanecarboxamide]

Reference: patent US9783488B2 (CHDI Foundation, Inc., priority 2013, dated 2017)
